Measurements as given in patent publication US9504669B2, “Spliceostatin analogs and methods for their preparation” (PFIZER INC., priority 2012, dated 2016).
Where a name gives a salt, the structure may show the parent alone.

Experiments:
Format in all cases: cell-based
[1] = system: N87 (gastric cancer) cells; assay: In vitro cell assay (MTS cell viability), N87; conditions: free compounds (natural products and synthetic analogs), cell viability 96 hours after treatment
Summary of the method: (§1)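 Cells seeded 24 h, then treated with antibody-drug conjugates or free drug, 3-fold serial dilutions at 10 concentrations in duplicate. Viability by MTS at 96 h as percent of untreated control; IC50 from four-parameter logistic fit.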

[2] = system: BT474 (breast cancer) cells; assay: In vitro cell assay (MTS cell viability), BT474; conditions: free compounds (natural products and synthetic analogs), cell viability 96 hours after treatment
Summary of the method: as §1

[3] = system: MDA-MB-468 cells (target non-expressing); assay: In vitro cell assay (MTS cell viability), MDA-MB-468; conditions: Homo sapiens, MDA-MB-468, 96 h, read-out: MDA-MB-468 IC50 (nM)
Method: Target expressing (BT474 (breast cancer), N87 (gastric cancer), HCC1954 (breast cancer), MDA-MB-361-DYT2 (breast cancer)) or non-expressing (MDA-MB-468) cells were seeded in 96-well cell culture plates for 24 hours before treatment. Cells were treated with 3-fold serially diluted antibody-drug conjugates or free compounds (i.e., no antibody conjugated to the drug) in duplicate at 10 concentrations. Cell viability was determined by CellTiter 96® AQueous One Solution Cell Proliferation MTS Assay (Promega, Madison Wis.) 96 hours after treatment. Relative cell viability was determined as percentage of untreated control. IC50 values were calculated using a four parameter logistic model #203 with XLfit v4.2 (IDBS, Guildford, Surry, UK). The potency ranged upward from 0.0002 nm. Similar procedures and techniques were employed.

[4] = system: MDA-MB-361-DYT2 (breast cancer) cells; assay: In vitro cell assay (MTS cell viability), MDA-MB-361-DYT2; conditions: free compounds (natural products and synthetic analogs), cell viability 96 hours after treatment
Summary of the method: as §1

CC(=O)O[C@@H](C)/C=C\C(=O)N[C@@H]1C[C@H](C)[C@H](C/C=C(C)/C=C/C2CC(O)(CCl)CC(CC(=O)O)O2)O[C@@H]1C (stereo partly drawn) [#NP8, [6-{(1E,3E)-5-[(2S,3S,5R,6R)-5-{[(2Z,4S)-4-(acetyloxy)pent-2-enoyl]amino}-3,6-dimethyltetrahydro-2H-pyran-2-yl]-3-methylpenta-1,3-dien-1-yl}-4-(chloromethyl)-4-hydroxytetrahydro-2H-pyran-2-yl]acetic acid]
IC50 ([1]; 96 h): 0.643 nM
IC50 ([2]; Homo sapiens, BT-474): 1.94 nM
IC50 [3]: 1.35 nM

CCCNC(=O)C[C@@H]1C[C@@]2(CO2)[C@H](O)[C@@H](/C=C/C(C)=C/C[C@@H]2O[C@H](C)[C@H](NC(=O)/C=C\[C@H](C)OC(=O)N3CCCCC3)C[C@@H]2C)O1 [#B66, (2S,3Z)-5-({(2R,3R,5S,6S)-6-[(2E,4E)-5-{(3R,4R,5R,7S)-4-hydroxy-7-[2-oxo-2-(propylamino)ethyl]-1,6-dioxaspiro[2.5]oct-5-yl}-3-methylpenta-2,4-dien-1-yl]-2,5-dimethyltetrahydro-2H-pyran-3-yl}amino)-5-oxopent-3-en-2-yl piperidine-1-carboxylate]
IC50 ([1]; 96 h): 1.58 nM
IC50 ([2]; Homo sapiens, BT-474): 0.18 nM
IC50 [3]: 0.27 nM

CC(=O)O[C@@H](C)/C=C\C(=O)N[C@@H]1C[C@H](C)[C@H](C/C=C(C)/C=C/[C@H]2O[C@H](CC(=O)O)C[C@@](O)(CCl)[C@@H]2O)O[C@@H]1C [#NP5, (5R)-5-{(1E,3E)-5-[(2S,3S,5R,6R)-5-{[(2Z,4S)-4-(acetyloxy)pent-2-enoyl]amino}-3,6-dimethyltetrahydro-2H-pyran-2-yl]-3-methylpenta-1,3-dien-1-yl}-1,5-anhydro-1-(carboxymethyl)-3-C-(chloromethyl)-2-deoxypentitol]
IC50 ([1]; 96 h): > 100 nM
IC50 ([2]; Homo sapiens, BT-474): > 100 nM
IC50 [3]: > 100 nM

CC(=O)O[C@@H](C)/C=C\C(=O)N[C@@H]1C[C@H](C)[C@H](C/C=C(C)/C=C/[C@H]2O[C@H](CC(=O)NCCO)C[C@@]3(CO3)[C@@H]2O)O[C@@H]1C [#B8, (2S,3Z)-5-{[(2R,3R,5S,6S)-6-{(2E,4E)-5-[(3R,4R,5R,7S)-4-hydroxy-7-{2-[(2-hydroxyethyl)amino]-2-oxoethyl}-1,6-dioxaspiro[2.5]oct-5-yl]-3-methylpenta-2,4-dien-1-yl}-2,5-dimethyltetrahydro-2H-pyran-3-yl]amino}-5-oxopent-3-en-2-yl acetate]
IC50 ([4]; 96 h): 25.5 nM
IC50 ([1]; 96 h): 10.7 nM
IC50 ([2]; Homo sapiens, BT-474): 14.1 nM

CC(=O)O[C@@H](C)/C=C\C(=O)N[C@@H]1C[C@H](C)[C@H](C/C=C(C)/C=C/[C@@H]2C[C@]3(CO3)C[C@@H](CC(=O)N(C)Cc3ccc(S(=O)(=O)N(C)C)cc3)O2)O[C@@H]1C [#B96, (2S,3Z)-5-{[(2R,3R,5S,6S)-6-{(2E,4E)-5-[(3S,5S,7S)-7-(2-{[4-(dimethylsulfamoyl)benzyl](methyl)amino}-2-oxoethyl)-1,6-dioxaspiro[2.5]oct-5-yl]-3-methylpenta-2,4-dien-1-yl}-2,5-dimethyltetrahydro-2H-pyran-3-yl]amino}-5-oxopent-3-en-2-yl acetate]
IC50 ([4]; 96 h): 31.5 nM
IC50 ([1]; 96 h): 12.3 nM
IC50 ([2]; Homo sapiens, BT-474): 22.9 nM

CC(=O)O[C@@H](C)/C=C\C(=O)N[C@@H]1C[C@H](C)[C@H](C/C=C(C)/C=C/[C@H]2O[C@H](CC(=O)N3CCNCC3)C[C@@]3(CO3)[C@@H]2O)O[C@@H]1C [#B12, (2S,3Z)-5-({(2R,3R,5S,6S)-6-[(2E,4E)-5-{(3R,4R,5R,7S)-4-hydroxy-7-[2-oxo-2-(piperazin-1-yl)ethyl]-1,6-dioxaspiro[2.5]oct-5-yl}-3-methylpenta-2,4-dien-1-yl]-2,5-dimethyltetrahydro-2H-pyran-3-yl}amino)-5-oxopent-3-en-2-yl acetate, acetate salt]
IC50 ([4]; 96 h): 87.8 nM
IC50 ([1]; 96 h): 54.6 nM
IC50 ([2]; Homo sapiens, BT-474): 55.5 nM

CC(=O)O[C@@H](C)/C=C\C(=O)N[C@@H]1C[C@H](C)[C@H](C/C=C(C)/C=C/[C@H]2O[C@H](CC(=O)NCc3cc(N)ccc3F)C[C@@]3(CO3)[C@@H]2O)O[C@@H]1C [#B92, (2S,3Z)-5-{[(2R,3R,5S,6S)-6-{(2E,4E)-5-[(3R,4R,5R,7S)-7-{2-[(5-amino-2-fluorobenzyl)amino]-2-oxoethyl}-4-hydroxy-1,6-dioxaspiro[2.5]oct-5-yl]-3-methylpenta-2,4-dien-1-yl}-2,5-dimethyltetrahydro-2H-pyran-3-yl]amino}-5-oxopent-3-en-2-yl acetate]
IC50 ([4]; 96 h): 6.18 nM
IC50 ([1]; 96 h): 1.5 nM
IC50 ([2]; Homo sapiens, BT-474): 2.28 nM

CC(=O)O[C@@H](C)/C=C\C(=O)N[C@@H]1C[C@H](C)[C@H](C/C=C(C)/C=C/[C@H]2O[C@H](CC(=O)N[C@H]3CC[C@H](O)CC3)C[C@@]3(CO3)[C@@H]2O)O[C@@H]1C [#B141, (2S,3Z)-5-{[(2R,3R,5S,6S)-6-{(2E,4E)-5-[(3R,4R,5R,7S)-4-hydroxy-7-{2-[(trans-4-hydroxycyclohexyl)amino]-2-oxoethyl}-1,6-dioxaspiro[2.5]oct-5-yl]-3-methylpenta-2,4-dien-1-yl}-2,5-dimethyltetrahydro-2H-pyran-3-yl]amino}-5-oxopent-3-en-2-yl acetate]
IC50 ([4]; 96 h): 12.8 nM
IC50 ([1]; 96 h): 11 nM
IC50 ([2]; Homo sapiens, BT-474): 10.9 nM

CC(=O)/C=C\C(=O)N[C@@H]1C[C@H](C)[C@H](C/C=C(C)/C=C/[C@@H]2C[C@]3(CO3)C[C@@H](CC(N)=O)O2)O[C@@H]1C [#B129, (2Z)—N-[(2R,3R,5S,6S)-6-{(2E,4E)-5-[(3S,5S,7S)-7-(2-amino-2-oxoethyl)-1,6-dioxaspiro[2.5]oct-5-yl]-3-methylpenta-2,4-dien-1-yl}-2,5-dimethyltetrahydro-2H-pyran-3-yl]-4-oxopent-2-enamide]
IC50 ([4]; 96 h): > 100 nM
IC50 ([1]; 96 h): > 100 nM
IC50 ([2]; Homo sapiens, BT-474): > 100 nM

CC(=O)O[C@@H](C)/C=C\C(=O)N[C@@H]1C[C@H](C)[C@H](C/C=C(C)/C=C/[C@H]2O[C@H](CC(=O)N3CCCCC3)C[C@@]3(CO3)[C@@H]2O)O[C@@H]1C [#B72, (2S,3Z)-5-({(2R,3R,5S,6S)-6-[(2E,4E)-5-{(3R,4R,5R,7S)-4-hydroxy-7-[2-oxo-2-(piperidin-1-yl)ethyl]-1,6-dioxaspiro[2.5]oct-5-yl}-3-methylpenta-2,4-dien-1-yl]-2,5-dimethyltetrahydro-2H-pyran-3-yl}amino)-5-oxopent-3-en-2-yl acetate]
IC50 ([4]; 96 h): 1.16 nM
IC50 ([1]; 96 h): 0.481 nM
IC50 ([2]; Homo sapiens, BT-474): 0.607 nM

CC(=O)O[C@@H](C)/C=C\C(=O)N[C@@H]1C[C@H](C)[C@H](C/C=C(C)/C=C/[C@@H]2C[C@]3(CO3)C[C@@H](CC(=O)NC(C)(C)C(=O)O)O2)O[C@@H]1C [#B79, N-{[(3S,5S,7S)-7-{(1E,3E)-5-[(2S,3S,5R,6R)-5-{[(2Z,4S)-4-(acetyloxy)pent-2-enoyl]amino}-3,6-dimethyltetrahydro-2H-pyran-2-yl]-3-methylpenta-1,3-dien-1-yl}-1,6-dioxaspiro[2.5]oct-5-yl]acetyl}-2-methylalanine]
IC50 ([4]; 96 h): 1.31 nM
IC50 ([1]; 96 h): 0.423 nM
IC50 ([2]; Homo sapiens, BT-474): 0.723 nM

COC(=O)C[C@@H]1C[C@@]2(CO2)[C@H](O)[C@@H](/C=C/C(C)=C/C[C@@H]2O[C@H](C)[C@H](NC(=O)/C=C\[C@H](C)OC(C)=O)C[C@@H]2C)O1 [#B55, methyl [(3R,5S,7R,8R)-7-{(1E,3E)-5-[(2S,3S,5R,6R)-5-{[(2Z,4S)-4-(acetyloxy)pent-2-enoyl]amino}-3,6-dimethyltetrahydro-2H-pyran-2-yl]-3-methylpenta-1,3-dien-1-yl}-8-hydroxy-1,6-dioxaspiro[2.5]oct-5-yl]acetate]
IC50 ([4]; 96 h): 1.26 nM
IC50 ([1]; 96 h): 0.822 nM
IC50 ([2]; Homo sapiens, BT-474): 0.879 nM

CC(=O)O[C@@H](C)/C=C\C(=O)N[C@@H]1C[C@H](C)[C@H](C/C=C(C)/C=C/[C@H]2O[C@H](CC(=O)NCc3cccc(N)c3)C[C@@]3(CO3)[C@@H]2O)O[C@@H]1C [#B89, (2S,3Z)-5-{[(2R,3R,5S,6S)-6-{(2E,4E)-5-[(3R,4R,5R,7S)-7-{2-[(3-aminobenzyl)amino]-2-oxoethyl}-4-hydroxy-1,6-dioxaspiro[2.5]oct-5-yl]-3-methylpenta-2,4-dien-1-yl}-2,5-dimethyltetrahydro-2H-pyran-3-yl]amino}-5-oxopent-3-en-2-yl acetate]
IC50 ([4]; 96 h): 7.99 nM
IC50 ([1]; 96 h): 1.91 nM
IC50 ([2]; Homo sapiens, BT-474): 3.56 nM

CC(=O)O[C@@H](C)/C=C\C(=O)N[C@@H]1C[C@H](C)[C@H](C/C=C(C)/C=C/[C@H]2O[C@H](CC(=O)NCc3ccc(N)c(C(F)(F)F)c3)C[C@@]3(CO3)[C@@H]2O)O[C@@H]1C [#B88, (2S,3Z)-5-{[(2R,3R,5S,6S)-6-{(2E,4E)-5-[(3R,4R,5R,7S)-7-(2-{[4-amino-3-(trifluoromethyl)benzyl]amino}-2-oxoethyl)-4-hydroxy-1,6-dioxaspiro[2.5]oct-5-yl]-3-methylpenta-2,4-dien-1-yl}-2,5-dimethyltetrahydro-2H-pyran-3-yl]amino}-5-oxopent-3-en-2-yl acetate]
IC50 ([4]; 96 h): 2.96 nM
IC50 ([1]; 96 h): 0.73 nM
IC50 ([2]; Homo sapiens, BT-474): 1.8 nM

CC(=O)O[C@@H](C)/C=C\C(=O)N[C@@H]1C[C@H](C)[C@H](C/C=C(C)/C=C/[C@@H]2C[C@]3(CO3)C[C@@H](CC(=O)NCCO)O2)O[C@@H]1C [#B95, ((2S,3Z)-5-{[(2R,3R,5S,6S)-6-{(2E,4E)-5-[(3S,5S,7S)-7-{2-[(2-hydroxyethyl)amino]-2-oxoethyl}-1,6-dioxaspiro[2.5]oct-5-yl]-3-methylpenta-2,4-dien-1-yl}-2,5-dimethyltetrahydro-2H-pyran-3-yl]amino}-5-oxopent-3-en-2-yl acetate]
IC50 [4]: 11.1 nM
IC50 [1]: 1.06 nM
IC50 [2]: 1.28 nM
